Test results: patent US9724380B2, “Method and compositions for synchronizing time of insemination in gilts” (JBS UNITED ANIMAL HEALTH II LLC, priority 2012, dated 2017)

Legend:
Type in all cases: in vivo, swine
[1] = system: gilts; experiment: Example 2: estrus observation post-MATRIX; settings: older gilts at the first site, all treatments
Protocol: Two hundred ninety-seven (297) gilts were fed MATRIX® as a top-dress for 14 days at the recommended rate of 15 mg/gilt/day. The last feeding of MATRIX® was at 5:30 AM (Day 0). Approximately one hundred gilts were allocated to each of the following treatments: • 1. Group 1, Controls (n=100); MATRIX® treated, but not OvuGel™ treated, inseminated daily during estrus, as is normally practiced (average of 1.9 inseminations per gilt). • 2. Group 2 (n=98); OvuGel™ treated at 6:30 am (+/−1 hr) on Day 5 and inseminated at 2 to 11 hours post-OvuGel™ treatment on Day 5 if expressing estrus. All gilts inseminated once on Day 6, 26 hours (+/−2.5 hrs) post-OvuGel™ treatment, regardless of estrus status. • 3. Group 3 (n=99); OvuGel™ treated at 6:30 am (+/−1 hr) on Day 5 and inseminated once at 2.5 to 9.5 hours post-OvuGel™ treatment on Day 5 and again on Day 6, 26.5 hours (+/−3 hrs) post-OvuGel™ treatment, without regard to estrus on either day.
(§1) Gilts were housed in individual pens. Boars were housed at least 12 m away and downwind. […] To facilitate detection of estrus, a mature boar was walked slowly in the alley in front of the gilt's pen, exposing each gilt to visual, auditory and olfactory signals from the boar for up to 5 minutes. […]

[2] = system: gilts; experiment: Example 3: estrus observation post-MATRIX; settings: younger gilts at the second site, all treatments
Protocol: Three hundred twelve (312) gilts were fed MATRIX® as a top-dress for 14 days at the recommended rate of 15 mg/gilt/day. The last feeding of MATRIX® was at 6:30 AM (Day 0). One hundred four gilts were allocated to each of the following treatments: • 1. Group 1, Controls (n=104); MATRIX® treated, but not OvuGel™ treated, inseminated daily during estrus, as is normally practiced at the site (average of 1.8 inseminations per gilt). • 2. Group 2 (n=104); OvuGel™ treated at 7:00 am (+/−1.5 hours) on Day 5 and inseminated at 2 to 4 hours post-OvuGel™ treatment on Day 5 if expressing estrus. All gilts inseminated once on Day 6, 26 hours (+/−2 hrs) post-OvuGel™ treatment, regardless of estrus status. • 3. Group 3 (n=104); OvuGel™ treated at 7:00 am (+/−1.5 hours) on Day 5 and inseminated once at 2 to 4 hours post-OvuGel™ treatment on Day 5 and again on Day 6, 26 hours (+/−2 hrs) post-OvuGel™ treatment, without regard to estrus on either day.
as §1

[3] = system: gilts; experiment: Example 5: ovulation monitored by transrectal ultrasonography after 100, 200 or 400 mcg triptorelin gel intravaginally at 120 h after MATRIX withdrawal; settings: all treatments
Protocol: (§2) All gilts were individually fed MATRIX® as a top-dress for 14 or 15 days at the recommended rate of 15 mg/gilt/day. Gilts were withdrawn from MATRIX® feeding (last top-dress in the morning on Day 0) and allocated to each of the following treatments. Controls were vehicle gel treated (vehicle gel without triptorelin) at 120 (+/−2) hours following MATRIX® withdrawal (last top dress). The other gilts were given 100, 200 or 400 mcg triptorelin as the acetate in a methylcellulose gel formulation 120 (+/−2) hours following MATRIX® withdrawal. The four treatments were: • 1. Vehicle gel (VG): vehicle gel without triptorelin at 120 (+/−2) hours after MATRIX® withdrawal. • 2. TG 100: 100 mcg (2 mL 50 mcg/mL) triptorelin gel at 120 (+/−2) hours after MATRIX® withdrawal. • 3. TG 200: 200 mcg (2 mL 100 mcg/mL) triptorelin gel at 120 (+/−2) hours after MATRIX® withdrawal. • 4. TG 400: 400 mcg (2 mL 200 mcg/mL) triptorelin gel at 120 (+/−2) hours after MATRIX® withdrawal.
(§3) Triptorelin (pGlu-His-Trp-Ser-Tyr-D-Trp-Leu-Arg-Pro-Gly-NH2) was supplied in the acetate form, from Bachem, Torrance, Calif. (Item H-4075 CGMP grade). Triptorelin gel (100-400 mcg/2 mL dose) was formulated by Argenta (Auckland, NZ) in a gel composed of Methocel Premium A4000 (Dow Chemical), citrate buffer (pH 5.5), NaCl, methionine, and methyl and propyl parabens. Fifty-four milliliters of triptorelin gel (100 mcg triptorelin acetate/mL) was packaged in Amber Borosilicate Glass Serum Vials (610206-50) with a Gray Butyl Pharmaceutical Serum Vial Stopper (73828A-SS) with a Standard Aluminum Seal (SAS20NAT). […] MATRIX® was supplied as the US commercially available form.
Ovulation was monitored twice on Day 5 (8 hours and 16 hours post-treatment) and every 8 hours on Day 6 and Day 7 or until ovulation was confirmed or 176 hours following last MATRIX® feeding. The ovulatory status of all gilts was monitored by transrectal ultrasonography. An Aloka 500 ultrasound machine is used for this purpose, with a 7.5 MHz linear array transducer attached to a fixed-angle PVC stabilizing rod to facilitate insertion into the rectum. The transducer and PVC rod are coated with a gynecological lubricant and gently inserted into the rectum until the ovaries can be visualized, one at a time. The diameters of the three largest follicles were recorded (to the nearest 0.1 mm) at each scanning. A gilt was declared to have ovulated when the number of large follicles (≧6.5 mm) fell to less than 3.
A single 2 mL dose of triptorelin gel or vehicle gel was deposited within approximately 1-2 cm posterior to the cervix with a catheter similar to those used for artificial insemination. The dose was delivered using a standard multi-dose applicator attached to the catheter. A new disposable sheath, which surrounds the catheter, was used for each gilt.

[4] = system: gilts; experiment: Example 5: estrus observation after triptorelin gel dose groups; settings: all treatments (did not differ among treatments)
Protocol: as §2, §3
For post-treatment estrus detection, gilts were housed in individual pens. Boars were housed in separate rooms, and/or at least 12 m away and downwind. To elicit signs of estrus, a mature boar was walked slowly in the alley in front of the gilts' crates, exposing each test gilt to visual, auditory and olfactory signals from the boar for up to 5 minutes. In keeping with standard practice at commercial farms, while the boar was near the front of the gilt's crate, estrus was tested by an experienced person applying back pressure to the midsection of the gilt combined with side rubbing. Estrus was confirmed when a gilt stood rigidly to the back pressure, with no vocalization and with some indication of an ear reflex. Gilts were not exposed to boars during the first three days after withdrawal of MATRIX® (Day 0 to Day 2). Estrus detection was performed daily on all gilts from Day 3 to Day 7.
A single 2 mL dose of triptorelin gel or vehicle gel was deposited within approximately 1-2 cm posterior to the cervix with a catheter similar to those used for artificial insemination. The dose was delivered using a standard multi-dose applicator attached to the catheter. […]

C=CC[C@]1(O)CC[C@H]2[C@@H]3CCC4=CC(=O)CCC4=C3C=C[C@@]21C [MATRIX®, altrenogest]
gilts that first expressed estrus on Day 5 post-MATRIX, average [1]: 30.1%
gilts that showed estrus on Day 5 [2]: 7.4%
gilts ovulated within the experimental period, overall [3]: 94%
interval from last feeding of MATRIX to estrus [4]: 146 ± 22 h
percentage of gilts which expressed estrus after the last feeding of MATRIX [4]: 97%
